Data reported in patent US7081472B2, “Substituted bis-indole derivatives useful as contrast agents, pharmaceutical compositions containing them and intermediates for producing them” (K. U. Leuven Research & Development, priority 2000, dated 2006).

Assays:
[1] = MR angiography after intravenous injection in a rabbit; type: in vivo; conditions: i.v. 0.1 mmole per kg
Excerpt: For the purpose of a comparison with a known contrast agent, MR angiographic images of a rabbit were taken (shown in FIG. 5) after intravenous injection of: • a commercial MRI contrast agent (Gd-DTPA commercially available under the tradename Magnevisto® from Schering A G, Berlin, Germany) at a concentration of 0.1 mmole per kg bodyweight (A-C), and • the complex of example 8 at a concentration of 0.05 mmole per kg bodyweight (A′-C′).

[2] = 0.25 mmolar solution, yellow-orange color; cited from earlier work
[3] = animals, 1 mmole of the gadolinium complex per kg body weight; cited from earlier work

## O=C([O-])CN(CCN(CC(=O)[O-])CC(=O)O)CCN(CC(=O)[O-])CC(=O)O.[Gd+3] [Gd-DTPA]
[1]; immediately after injection
  contrast enhancement of abdominal aorta, first pass: moderately enhanced
[1]; one minute after contrast
  contrast enhancement of abdominal aorta: faintly enhanced

## gadolinium complex of the bis-diethylenetriaminepentaacetic acid pamoic acid derivative obtained from 3-hydroxy-2-naphtalene methyl carboxylate
[2]
  absorbance at 400 nm: 0.75
[3]
  side effects after intravenous bolus injection: significant side effects (e.g. myocarditis)
